Laboratory results reported in ChEMBL document CHEMBL6087488, “Development of the First-in-Class FEM1B-Recruiting Histone Deacetylase Degraders” (J Med Chem, 2025).
Active and inactive are the calls of the source. The rule behind the calls is not given here.

What was measured:
[1] = target: T1, Protein fem-1 homolog B/Histone deacetylase 1 (Homo sapiens, UniProt Q13547+Q9UK73); test: PROTAC activity at FEM1B/HDAC1 in human MV4-11 cell lysate assessed as protein degradation at 10 uM measured after 24 hrs by Western immunoassay relative to control; assay type: subcellular
T1 sequence (Q13547 whole entry, looked up): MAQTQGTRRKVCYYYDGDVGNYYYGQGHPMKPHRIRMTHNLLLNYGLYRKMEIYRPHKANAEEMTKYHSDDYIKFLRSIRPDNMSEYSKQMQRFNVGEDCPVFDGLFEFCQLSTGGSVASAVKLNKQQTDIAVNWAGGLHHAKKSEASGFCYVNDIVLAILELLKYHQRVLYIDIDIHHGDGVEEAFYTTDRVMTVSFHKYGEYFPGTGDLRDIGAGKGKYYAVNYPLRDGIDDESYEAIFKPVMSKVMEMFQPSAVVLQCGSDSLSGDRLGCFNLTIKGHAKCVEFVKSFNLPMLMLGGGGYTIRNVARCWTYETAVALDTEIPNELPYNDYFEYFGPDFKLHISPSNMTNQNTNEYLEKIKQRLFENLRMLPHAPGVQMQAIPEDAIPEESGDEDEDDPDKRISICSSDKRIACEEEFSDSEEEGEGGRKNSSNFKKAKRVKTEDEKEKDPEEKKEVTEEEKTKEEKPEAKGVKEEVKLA
T1 sequence (Q9UK73 whole entry, looked up): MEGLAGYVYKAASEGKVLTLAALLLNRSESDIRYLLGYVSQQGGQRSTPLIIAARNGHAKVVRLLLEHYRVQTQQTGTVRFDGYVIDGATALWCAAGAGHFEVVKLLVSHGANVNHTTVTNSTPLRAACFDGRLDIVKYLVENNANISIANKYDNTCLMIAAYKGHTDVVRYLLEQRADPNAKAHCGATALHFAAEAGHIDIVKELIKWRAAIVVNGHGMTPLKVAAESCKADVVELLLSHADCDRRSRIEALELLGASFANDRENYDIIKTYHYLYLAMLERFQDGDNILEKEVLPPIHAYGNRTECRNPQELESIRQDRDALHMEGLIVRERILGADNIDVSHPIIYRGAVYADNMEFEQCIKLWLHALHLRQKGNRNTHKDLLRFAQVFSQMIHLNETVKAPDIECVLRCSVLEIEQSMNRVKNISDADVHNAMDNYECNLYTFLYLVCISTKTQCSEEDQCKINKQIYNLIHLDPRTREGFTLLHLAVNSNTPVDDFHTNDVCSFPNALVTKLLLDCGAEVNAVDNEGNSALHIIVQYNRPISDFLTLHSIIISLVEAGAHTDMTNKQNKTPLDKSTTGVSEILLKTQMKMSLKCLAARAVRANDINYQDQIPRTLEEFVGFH

[2] = target: Protein fem-1 homolog B/REST corepressor 1 (Homo sapiens) (UniProt Q9UKL0+Q9UK73); test: PROTAC activity at FEM1B/RCOR1 in human MM1.S cell lysate assessed as protein degradation at 0.5 uM measured after 6 hrs by global quantitative proteomics analysis; assay type: subcellular
[3] = target: Protein fem-1 homolog B/REST corepressor 3 (Homo sapiens) (UniProt Q9P2K3+Q9UK73); test: PROTAC activity at FEM1B/RCOR3 in human MM1.S cell lysate assessed as protein degradation at 0.5 uM measured after 6 hrs by global quantitative proteomics analysis; assay type: subcellular
[4] = target: T1, Protein fem-1 homolog B/Histone deacetylase 1; test: PROTAC activity at FEM1B/HDAC1 in human MM1.S cell lysate assessed as neddylation-dependent protein degradation at 1 uM in presence of vorinostat measured after 24 hrs by Western immunoassay; assay type: subcellular
[5] = tested on: MM1.S; test: Induction of apoptosis in human MM1.S cells assessed as increase in late apoptotic cells at 10 uM measured after 48 hrs by annexin V-FITC/PI staining based assay; assay type: functional, cell-based
[6] = target: Protein fem-1 homolog B/Lysine-specific histone demethylase 1A (Homo sapiens) (UniProt O60341+Q9UK73); test: PROTAC activity at FEM1B/KDM1A (LSD1) in human MM1.S cell lysate assessed as protein degradation at 0.5 uM measured after 6 hrs by global quantitative proteomics analysis; assay type: subcellular
Sequence of Protein fem-1 homolog B/Lysine-specific histone demethylase 1A (Homo sapiens) (Q9UK73 whole entry, looked up, other chains not shown): as the sequence (Q9UK73 whole entry, looked up) above

[7] = target: Protein fem-1 homolog B//Mesoderm induction early response protein 1 (Homo sapiens) (UniProt Q9UK73+Q8N108); test: PROTAC activity at FEM1B/MIER1 in human MM1.S cell lysate assessed as protein degradation at 0.5 uM measured after 6 hrs by global quantitative proteomics analysis; assay type: subcellular
[8] = target: T1, Protein fem-1 homolog B/Histone deacetylase 1; test: PROTAC activity at FEM1B/HDAC1 in human MM.1S cell lysate assessed as maximal initial degradation at measured after 24 hrs by Western immunoassay relative to control; assay type: subcellular; settings: MM1.S
[9] = tested on: MM1.S; test: Induction of cell cycle arrest in human MM1.s cells assessed as increase in cells at Sub-G1 phase at 10 uM measured after 48 hrs by propidium iodide based flow cytometry; assay type: functional
[10] = target: Protein fem-1 homolog B/Protein deacetylase HDAC6 (Homo sapiens) (UniProt Q9UBN7+Q9UK73); test: PROTAC activity at FEM1B/HDAC6 in human MM1.S cell lysate assessed as protein degradation at 1 uM measured after 24 hrs by Western immunoassay; assay type: subcellular
[11] = tested on: MM1.S; test: Induction of apoptosis in human MM1.S cells assessed as increase in early apoptotic cells at 10 uM measured after 48 hrs by annexin V-FITC/PI staining based assay; assay type: functional, cell-based
[12] = target: Protein fem-1 homolog B/Histone deacetylase 2 (Homo sapiens) (UniProt Q92769+Q9UK73); test: PROTAC activity at FEM1B/HDAC2 in human MM1.S cell lysate assessed as protein degradation at 1 uM measured after 24 hrs by Western immunoassay; assay type: subcellular
[13] = target: T1, Protein fem-1 homolog B/Histone deacetylase 1; test: PROTAC activity at FEM1B/HDAC1 in human MM1.S cell lysate assessed as protein degradation at 1 uM measured after 24 hrs by Western immunoassay; assay type: subcellular
[14] = target: Protein fem-1 homolog B//Paired amphipathic helix protein Sin3a (Homo sapiens) (UniProt Q9UK73+Q96ST3); test: PROTAC activity at FEM1B/SIN3A in human MM1.S cell lysate assessed as protein degradation at 0.5 uM measured after 6 hrs by global quantitative proteomics analysis; assay type: subcellular
Sequence of Protein fem-1 homolog B//Paired amphipathic helix protein Sin3a (Homo sapiens) (Q96ST3 whole entry, looked up): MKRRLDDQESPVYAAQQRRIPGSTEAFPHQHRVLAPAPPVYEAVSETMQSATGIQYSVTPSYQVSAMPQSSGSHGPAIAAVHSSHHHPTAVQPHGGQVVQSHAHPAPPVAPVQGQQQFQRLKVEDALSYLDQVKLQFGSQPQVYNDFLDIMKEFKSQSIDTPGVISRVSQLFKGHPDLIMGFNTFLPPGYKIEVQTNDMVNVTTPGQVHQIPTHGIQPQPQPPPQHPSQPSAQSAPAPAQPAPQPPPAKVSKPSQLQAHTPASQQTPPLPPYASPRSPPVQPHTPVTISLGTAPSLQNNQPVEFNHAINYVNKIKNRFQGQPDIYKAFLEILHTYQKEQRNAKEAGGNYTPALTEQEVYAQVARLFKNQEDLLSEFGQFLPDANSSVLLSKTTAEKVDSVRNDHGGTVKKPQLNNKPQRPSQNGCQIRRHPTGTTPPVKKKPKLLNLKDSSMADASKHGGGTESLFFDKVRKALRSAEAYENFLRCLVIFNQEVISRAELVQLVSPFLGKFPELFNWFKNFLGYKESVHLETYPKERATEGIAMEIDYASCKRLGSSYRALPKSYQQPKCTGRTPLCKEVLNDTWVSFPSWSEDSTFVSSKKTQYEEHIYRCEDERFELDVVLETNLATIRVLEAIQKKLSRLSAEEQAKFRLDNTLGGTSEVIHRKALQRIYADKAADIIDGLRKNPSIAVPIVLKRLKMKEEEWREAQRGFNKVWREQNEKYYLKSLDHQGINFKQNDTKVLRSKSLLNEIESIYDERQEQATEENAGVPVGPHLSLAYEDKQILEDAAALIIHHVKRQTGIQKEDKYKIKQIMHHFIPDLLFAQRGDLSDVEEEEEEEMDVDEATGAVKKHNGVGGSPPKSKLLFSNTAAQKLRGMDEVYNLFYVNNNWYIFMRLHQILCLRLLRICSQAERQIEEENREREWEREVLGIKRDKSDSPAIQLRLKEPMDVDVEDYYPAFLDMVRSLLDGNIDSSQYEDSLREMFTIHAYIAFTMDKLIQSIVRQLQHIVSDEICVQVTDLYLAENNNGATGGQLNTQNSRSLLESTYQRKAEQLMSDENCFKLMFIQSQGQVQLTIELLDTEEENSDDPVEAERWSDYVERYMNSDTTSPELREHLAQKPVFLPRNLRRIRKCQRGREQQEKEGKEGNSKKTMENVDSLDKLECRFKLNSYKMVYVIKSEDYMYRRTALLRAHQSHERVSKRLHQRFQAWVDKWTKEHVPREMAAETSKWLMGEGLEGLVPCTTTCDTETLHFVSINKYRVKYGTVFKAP
Sequence of Protein fem-1 homolog B//Paired amphipathic helix protein Sin3a (Homo sapiens) (Q9UK73 whole entry, looked up): as the sequence (Q9UK73 whole entry, looked up) above

[15] = target: T1, Protein fem-1 homolog B/Histone deacetylase 1; test: PROTAC activity at FEM1B/HDAC1 in human U-87 MG cell lysate assessed as protein degradation at 10 uM measured after 24 hrs by Western immunoassay relative to control; assay type: subcellular
[16] = target: Protein fem-1 homolog B/Nuclear receptor corepressor 1 (Homo sapiens) (UniProt O75376+Q9UK73); test: PROTAC activity at FEM1B/NCOR1 in human MM1.S cell lysate assessed as protein degradation at 0.5 uM measured after 6 hrs by global quantitative proteomics analysis; assay type: subcellular
[17] = tested on: MM1.S; test: Induction of cell cycle arrest in human MM1.S cells assessed as reduction in cells at […] phase at 10 uM measured after 48 hrs by propidium iodide based flow cytometry; assay type: functional
[18] = target: Protein fem-1 homolog B/Histone deacetylase 3 (Homo sapiens) (UniProt O15379+Q9UK73); test: PROTAC activity at FEM1B/HDAC3 in human MM1.S cell lysate assessed as protein degradation at 1 uM measured after 24 hrs by Western immunoassay; assay type: subcellular
Sequence of Protein fem-1 homolog B/Histone deacetylase 3 (Homo sapiens) (O15379 whole entry, looked up): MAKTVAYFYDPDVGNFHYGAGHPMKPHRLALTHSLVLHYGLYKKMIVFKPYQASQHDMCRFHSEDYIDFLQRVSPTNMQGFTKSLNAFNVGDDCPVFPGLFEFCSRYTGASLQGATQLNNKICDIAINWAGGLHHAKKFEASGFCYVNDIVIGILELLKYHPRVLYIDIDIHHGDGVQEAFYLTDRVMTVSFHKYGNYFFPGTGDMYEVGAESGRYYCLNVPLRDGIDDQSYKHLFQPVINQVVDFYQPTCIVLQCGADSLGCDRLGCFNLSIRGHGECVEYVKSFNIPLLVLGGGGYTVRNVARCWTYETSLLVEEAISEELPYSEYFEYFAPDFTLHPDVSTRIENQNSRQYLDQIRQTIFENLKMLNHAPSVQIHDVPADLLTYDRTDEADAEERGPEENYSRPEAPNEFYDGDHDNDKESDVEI
Sequence of Protein fem-1 homolog B/Histone deacetylase 3 (Homo sapiens) (Q9UK73 whole entry, looked up): as the sequence (Q9UK73 whole entry, looked up) above

[19] = target: Protein fem-1 homolog B/Histone deacetylase 8 (Homo sapiens) (UniProt Q9BY41+Q9UK73); test: PROTAC activity at FEM1B/HDAC8 in human MM1.S cell lysate assessed as protein degradation at 1 uM measured after 24 hrs by Western immunoassay; assay type: subcellular
[20] = target: Protein fem-1 homolog B/Histone deacetylase 4 (Homo sapiens) (UniProt P56524+Q9UK73); test: PROTAC activity at FEM1B/HDAC4 in human MM1.S cell lysate assessed as protein degradation at 1 uM measured after 24 hrs by Western immunoassay; assay type: subcellular
[21] = target: T1, Protein fem-1 homolog B/Histone deacetylase 1; test: PROTAC activity at FEM1B/HDAC1 in human MM1.S cell lysate assessed as neddylation-dependent protein degradation at 1 uM in presence of MLN4924 measured after 24 hrs by Western immunoassay; assay type: subcellular
[22] = target: T1, Protein fem-1 homolog B/Histone deacetylase 1; test: PROTAC activity at FEM1B/HDAC1 in human MM1.S cell lysate assessed as initial degradation at 1 uM measured after 24 hrs by Western immunoassay; assay type: subcellular
[23] = target: T1, Protein fem-1 homolog B/Histone deacetylase 1; test: PROTAC activity at FEM1B/HDAC1 in human MDA-MB-231 cell lysate assessed as protein degradation at 10 uM measured after 24 hrs by Western immunoassay relative to control; assay type: subcellular

With `N#CCCN(C(=O)CCl)c1ccc2c(c1)OCCN2CC(=O)NCC(=O)Nc1ccc(C(=O)NCCCCCCC(=O)NO)cc1` the Activity [1] was 87%, the Activity [2] was “Active” and the Activity [3] was “Active”. For the same compound, the Activity [4] was “inactive”, the Activity [5] was “Active” and the Activity [6] was “Active”. For the same compound, the Activity [7] was “Active”, the Emax [8] was 85.2% and the Activity [9] was “Active”. For the same compound, the Activity [10] was “inactive”, the Activity [11] was “Active” and the Activity [12] was “Active”. For the same compound, the Activity [13] was “Active”, the Activity [14] was “Active” and the Activity [15] was 75%. For the same compound, the Activity [16] was “Active”, the Activity [17] was “Active” and the Activity [18] was “Active”. For the same compound, the Activity [19] was “inactive”, the Activity [20] was “inactive” and the Activity [21] was “inactive”. It also gave an Activity [22] of 62.3% and an Activity [23] of 53%.
